# Source: ChEMBL document CHEMBL3301562, “MMV Box screening against Plasmodium falciparum protein kinases and aminoacyl tRNA synthetases”
# Experiments:
# Format in all cases: functional
# [1] = target: T1, Cdk-related protein kinase 6 (Plasmodium falciparum, UniProt O77239); experiment: Final concentrations were 1.5 uM ATP, 5 mM MnCl2, and 15 ug/ml PK6 in a buffer of 100 mM Tris-HCl (pH 7.5). 50 ug/mL MBP was provided as the substrate; 10 uM staurosporine was used as a control inhibitor. Incubation time was 3 hours and 40 minutes.The catalytic activity of each kinase was considered proportional to ATP consumed, as determined from measurements of residual [ATP] with the luciferase-based reagent Kinase-Glo (Promega) following incubation. Luminescence (proportional to residual [ATP]) was measured on the plate readers FLx800 (BioTek Instruments, Winooski, VT, USA) and MicroBeta2.
# T1 sequence (O77239 whole entry): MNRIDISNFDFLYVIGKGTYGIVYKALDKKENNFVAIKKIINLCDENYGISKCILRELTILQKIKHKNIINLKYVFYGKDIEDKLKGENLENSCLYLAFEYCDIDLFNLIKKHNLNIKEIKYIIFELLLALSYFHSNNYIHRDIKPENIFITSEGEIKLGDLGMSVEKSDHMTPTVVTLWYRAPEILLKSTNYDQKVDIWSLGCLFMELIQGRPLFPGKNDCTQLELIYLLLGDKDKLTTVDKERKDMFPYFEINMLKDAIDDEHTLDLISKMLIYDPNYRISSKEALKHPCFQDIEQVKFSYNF
# [2] = target: T2, Putative uncharacterized protein pk7 (Plasmodium falciparum, UniProt O96214); experiment: Final concentrations were 1 uM ATP, 2 mM DTT, 20 mM MgCl2, 2 mM MnCl2, 0.01% BSA, and 6 ug/ml PK7, in a buffer of 20 mM Tris-HCl (pH 7.5). The enzyme itself was the only substrate present (since autophosphorylation occurs); 100 uM 1NA-PP1 was used as a control inhibitor. Incubation time was 3 hours.
# T2 sequence (O96214 whole entry): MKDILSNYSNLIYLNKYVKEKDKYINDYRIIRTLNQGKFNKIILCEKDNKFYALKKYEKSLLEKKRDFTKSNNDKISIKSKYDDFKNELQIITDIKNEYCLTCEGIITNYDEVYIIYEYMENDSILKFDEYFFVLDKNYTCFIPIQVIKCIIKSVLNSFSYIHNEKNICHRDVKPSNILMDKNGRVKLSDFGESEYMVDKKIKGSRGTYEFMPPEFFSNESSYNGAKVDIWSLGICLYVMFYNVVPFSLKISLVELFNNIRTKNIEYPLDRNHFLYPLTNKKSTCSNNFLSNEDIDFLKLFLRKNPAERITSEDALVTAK
# [3] = target: T3, Mitogen-activated protein kinase (Plasmodium falciparum, UniProt Q25917); experiment: Final concentrations were 1 uM ATP, 0.5 mM DTT, 1 mM MgCl2, 0.5 mg/mL BSA, and 10 ug/ml MAP2 in a buffer of 50 mM HEPES (pH 7.0). 0.5 mg/mL histone III-S served as the substrate (13); 100 uM AMP-PNP, an ATP analog, was used as a control inhibitor. Incubation time was 4 hours.
# T3 sequence (Q25917 whole entry): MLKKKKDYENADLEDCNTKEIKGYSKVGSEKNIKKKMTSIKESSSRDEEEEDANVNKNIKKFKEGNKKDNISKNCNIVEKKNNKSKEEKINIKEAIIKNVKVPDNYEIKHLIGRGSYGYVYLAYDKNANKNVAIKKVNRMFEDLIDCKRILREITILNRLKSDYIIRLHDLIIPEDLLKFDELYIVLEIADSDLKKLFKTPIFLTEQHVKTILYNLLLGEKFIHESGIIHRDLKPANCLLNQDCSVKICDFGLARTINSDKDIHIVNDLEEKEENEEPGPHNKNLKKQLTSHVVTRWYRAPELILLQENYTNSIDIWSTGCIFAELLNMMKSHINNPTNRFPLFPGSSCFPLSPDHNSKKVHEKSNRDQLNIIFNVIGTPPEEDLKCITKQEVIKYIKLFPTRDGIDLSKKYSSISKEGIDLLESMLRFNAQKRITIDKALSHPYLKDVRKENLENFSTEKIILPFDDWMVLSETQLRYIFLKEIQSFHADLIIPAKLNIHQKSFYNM
# [4] = target: Calcium-dependent protein kinase 1 (Plasmodium falciparum, UniProt P62344); experiment: MMV: CDPK1 Protein kinase inhibition assay using recombinant PfCDPK1, syntide 2 peptide substrate, ATP and KinaseGlo to measure % inhibition at 1 uM MMV box compound.
# Calcium-dependent protein kinase 1, sequence (P62344 whole entry): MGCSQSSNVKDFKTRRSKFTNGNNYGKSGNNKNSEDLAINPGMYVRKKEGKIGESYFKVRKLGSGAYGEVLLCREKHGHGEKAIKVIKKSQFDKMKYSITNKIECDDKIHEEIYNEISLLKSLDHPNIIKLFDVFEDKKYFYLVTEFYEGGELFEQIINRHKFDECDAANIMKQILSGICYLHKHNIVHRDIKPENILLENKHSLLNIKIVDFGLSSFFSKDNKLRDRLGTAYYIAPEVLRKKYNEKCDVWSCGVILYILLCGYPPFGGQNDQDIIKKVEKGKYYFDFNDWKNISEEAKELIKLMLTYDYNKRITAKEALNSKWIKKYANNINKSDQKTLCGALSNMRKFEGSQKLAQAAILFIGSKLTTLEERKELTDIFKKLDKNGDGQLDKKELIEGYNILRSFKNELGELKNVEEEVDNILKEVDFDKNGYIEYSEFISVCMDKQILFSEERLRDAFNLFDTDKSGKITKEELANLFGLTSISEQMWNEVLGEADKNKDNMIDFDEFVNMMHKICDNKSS
# [5] = target: T4, Calcium-dependent protein kinase 4 (Plasmodium falciparum (isolate 3D7), UniProt Q8IBS5); experiment: MMV: CDPK4 Protein kinase inhibition assay using recombinant PfCDPK4, syntide2 peptide substrate, ATP and KinaseGlo to measure % inhibition at 1 uM MMV box compound.
# T4 sequence (Q8IBS5 whole entry): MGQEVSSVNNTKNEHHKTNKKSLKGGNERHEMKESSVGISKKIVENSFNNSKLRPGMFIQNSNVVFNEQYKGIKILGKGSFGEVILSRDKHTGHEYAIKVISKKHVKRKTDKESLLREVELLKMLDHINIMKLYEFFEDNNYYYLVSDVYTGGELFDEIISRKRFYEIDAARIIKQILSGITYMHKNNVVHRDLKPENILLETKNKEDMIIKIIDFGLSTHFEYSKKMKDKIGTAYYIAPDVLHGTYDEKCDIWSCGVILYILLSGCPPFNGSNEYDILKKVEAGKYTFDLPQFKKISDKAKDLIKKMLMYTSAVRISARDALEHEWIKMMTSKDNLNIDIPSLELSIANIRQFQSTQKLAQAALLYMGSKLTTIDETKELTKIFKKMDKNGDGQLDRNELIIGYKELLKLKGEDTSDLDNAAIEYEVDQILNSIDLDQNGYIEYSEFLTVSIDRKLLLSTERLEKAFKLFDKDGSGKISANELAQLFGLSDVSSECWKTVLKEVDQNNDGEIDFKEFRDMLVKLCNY
# Proline--tRNA ligase = target: T5, Proline--tRNA ligase (Plasmodium falciparum (isolate 3D7), UniProt Q8I5R7); experiment: MMV: ProRS recombinant Plasmodium falciparum Prolyl-tRNA-synthetase, assay with yeast tRNA, ATP, and proline and 3 uM MMV malaria box compound, assay read out with kinase glo as % inhibition.
# T5 sequence (Q8I5R7 whole entry): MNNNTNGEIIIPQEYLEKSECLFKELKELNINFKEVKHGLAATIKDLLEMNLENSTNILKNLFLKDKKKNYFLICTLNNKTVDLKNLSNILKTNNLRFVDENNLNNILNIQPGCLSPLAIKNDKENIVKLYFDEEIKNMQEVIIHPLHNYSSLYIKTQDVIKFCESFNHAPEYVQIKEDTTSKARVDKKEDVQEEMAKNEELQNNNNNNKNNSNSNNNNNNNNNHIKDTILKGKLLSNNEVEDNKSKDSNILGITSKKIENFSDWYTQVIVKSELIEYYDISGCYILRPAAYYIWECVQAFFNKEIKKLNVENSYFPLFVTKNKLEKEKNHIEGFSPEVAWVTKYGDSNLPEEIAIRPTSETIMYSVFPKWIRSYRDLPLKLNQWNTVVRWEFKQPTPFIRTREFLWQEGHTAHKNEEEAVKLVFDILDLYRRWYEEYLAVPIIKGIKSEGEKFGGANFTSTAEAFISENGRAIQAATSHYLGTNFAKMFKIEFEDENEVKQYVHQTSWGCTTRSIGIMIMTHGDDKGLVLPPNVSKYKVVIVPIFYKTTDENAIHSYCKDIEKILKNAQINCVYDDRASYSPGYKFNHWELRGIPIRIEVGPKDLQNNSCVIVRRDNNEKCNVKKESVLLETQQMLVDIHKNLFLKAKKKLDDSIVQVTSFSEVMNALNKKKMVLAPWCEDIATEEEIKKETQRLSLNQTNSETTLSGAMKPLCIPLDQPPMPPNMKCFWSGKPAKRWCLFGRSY
# Lysine--tRNA ligase = Lysine--tRNA ligase (Plasmodium falciparum (isolate 3D7), UniProt Q8IDJ8); experiment: MMV: KRS recombinant Plasmodium falciparum Lysyl-tRNA-synthetase, assay with yeast tRNA, ATP, and lysine and 3 uM MMV malaria box compound, assay read out with kinase glo as % inhibition.
# Lysine--tRNA ligase, sequence (Q8IDJ8 whole entry): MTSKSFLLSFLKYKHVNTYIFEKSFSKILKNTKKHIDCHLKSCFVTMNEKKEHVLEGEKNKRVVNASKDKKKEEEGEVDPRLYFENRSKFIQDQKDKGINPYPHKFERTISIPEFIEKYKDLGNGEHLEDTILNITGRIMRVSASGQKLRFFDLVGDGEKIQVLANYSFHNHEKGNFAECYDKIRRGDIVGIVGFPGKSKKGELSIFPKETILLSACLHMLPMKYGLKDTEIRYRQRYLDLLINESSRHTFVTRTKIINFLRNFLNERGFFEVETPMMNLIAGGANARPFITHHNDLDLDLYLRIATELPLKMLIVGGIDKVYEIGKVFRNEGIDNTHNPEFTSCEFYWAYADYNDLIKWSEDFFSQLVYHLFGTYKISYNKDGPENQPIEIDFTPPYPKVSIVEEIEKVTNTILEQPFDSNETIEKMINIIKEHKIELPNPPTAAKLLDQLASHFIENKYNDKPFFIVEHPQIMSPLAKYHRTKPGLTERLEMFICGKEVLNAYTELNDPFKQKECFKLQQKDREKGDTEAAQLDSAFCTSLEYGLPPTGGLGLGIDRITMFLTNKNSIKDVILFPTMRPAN
Compound,IC50 [1] [µM],IC50 [2] [µM],IC50 [3] [µM],IC50 [4] [µM],IC50 [5] [µM],IC50 (Proline--tRNA ligase) [µM],IC50 (Lysine--tRNA ligase) [µM]
Cc1cc(N2CCCC2)nc(Nc2ccc(NC(=O)CCc3ccccc3)cc2)n1,> 1,> 1,> 1,> 1,> 1,> 2.5,> 2.5
CN1CCN(c2ncnc3c2[nH]c2ccc(Cl)cc23)CC1,> 1,> 1,> 1,> 1,> 1,> 2.5,> 2.5
CN(C)CCCNCc1ccc(-c2ccc(F)c(Cl)c2)o1,> 1,> 1,> 1,> 1,> 1,> 2.5,> 2.5
O=c1nc(C=Cc2ccc(Br)cc2)oc2ccccc12,> 1,> 1,> 1,> 1,0.7,> 2.5,> 2.5
COc1ccc2nc(N)nc(C)c2c1,> 1,> 1,> 1,> 1,> 1,> 2.5,> 2.5
COc1ccc(C(=O)NC(c2ccc(Cl)cc2Cl)c2cc(Cl)c3cccnc3c2O)cc1 (stereo not given),> 1,> 1,> 1,> 1,> 1,> 2.5,> 2.5
CCC(=O)Nc1nnc(Cc2ccc(OC)c(OC)c2)s1,> 1,> 1,> 1,> 1,> 1,> 2.5,> 2.5
COc1cccc(C(=O)Nc2ccc(-c3nc4ccccc4[nH]3)cc2)c1,> 1,> 1,> 1,> 1,> 1,> 2.5,> 2.5
CCOc1cc2c(cc1OCC)C(c1cc(Cl)c(O)c(OCC)c1)NCC2 (stereo not given),> 1,> 1,> 1,> 1,> 1,> 2.5,> 2.5
COc1ccc(N2CCN(C(CNC(=O)CC(C)(C)C)c3ccc4c(c3)OCO4)CC2)cc1 (stereo not given),> 1,> 1,> 1,> 1,> 1,> 2.5,> 2.5
CCCCCCn1c(=N)n(CC(O)COc2cccc(C)c2)c2ccccc21 (stereo not given),> 1,> 1,> 1,> 1,> 1,> 2.5,> 2.5
COc1ccc(CN2CCN(Cc3ccccc3)CC2)c(O)c1,> 1,> 1,> 1,> 1,> 1,> 2.5,> 2.5
OC(CNCc1ccccc1)Cn1c2ccccc2c2ccccc21 (stereo not given),> 1,> 1,> 1,> 1,> 1,> 2.5,> 2.5
COc1ccc(C(=O)C2CC2c2ccc(Cl)cc2)cc1 (stereo not given),> 1,> 1,> 1,> 1,> 1,> 2.5,> 2.5
CCN1CCN(c2c(C(=O)c3ccccc3)cnc3cc(OC)c(OC)cc23)CC1,> 1,> 1,> 1,> 1,> 1,> 2.5,> 2.5
